Assay [1] has as its target Human CB2R (Cannabinoid receptor 2) (Homo sapiens (Human), UniProt P34972). Nature of the assay: CB-2 in vitro cAMP assay (HTRF), inverse agonism. The assay is classed as cell-based. Conditions: mean where tested more than once. An excerpt:
(§1) CB1 and CB2 receptors are Gi-coupled GPCR. Activation of CB1 and CB2 receptors results in a decrease in cAMP production. An inverse agonist of the CB1 or CB2 receptor results in the opposite effect, an increase of cAMP production. The principle of this assay is based on HTRF® technology (Homogeneous Time-Resolved Fluorescence). The method is a competitive immunoassay between native cAMP produced by cells and the cAMP labeled with the fluorophore d2. The tracer binding is quantified by a Mab anti-cAMP labeled with Eu3+TBP-NHS Cryptate (supplied as part of the assay kit). The specific signal (i.e. energy transfer) is inversely proportional to the concentration of cAMP in the standard or sample.
(§2) Human CB1R (Cannabinoid receptor 1) was stably transfected in HEK-293 cells (DiscoveRx, cat: 93-0200C1). Human CB2R (Cannabinoid receptor 2) was stably transfected in HEK-293 cells (DiscoveRx, cat: 93-0201C1). Cell cultures were maintained in media: DMEM (Invitrogen Cat#12430-054) supplemented with 10% HI FBS (Invitrogen Cat#16140-071), 1% L-glutamine (Invitrogen Cat#25030-081), 0.2 mg/ml Hygromycin B (Invitrogen Cat#10687-010), 600 μg/mL G418 (Invitrogen Cat#10131-035), and 1X Penn/Strep (Invitrogen 15140-122). After cell expansion, aliquots were cryo-stored in media containing 5% DMSO (Pierce Cat#20684).
(§3) One day prior to experiments media was warmed to 37° C. and the cryo-stored cells were thawed in a 37° C. water bath. The cells were then added to media (10× volume) and the mixture was centrifuged at 1000 RPM for 5 min. The supernate was removed and the cells were re-suspended in media. A sample of the cell suspension was evaluated on a Cedex XS automated cell counter (Innovatis Systems) to determine viable cells/ml. Additional media was added to the cells to achieve a final cell density of 4E5 cells/mL. The cells were then plated into 384 well PDL white solid bottom plates (Greiner, Cat#781945) at 20 μL per well using a Multidrop (Thermo Scientific). Cells were removed from Row P (location of cAMP standards). Two columns of cells were plated into a clear bottom 384 well PDL coated plate (Greiner, Cat#781944) to view confluence the day of the assay. The cell plates were lidded and stored for 15 minutes in a hood, then transferred to an incubator (37° C., 5% CO2, 95% humidity) overnight.
(§4) DMSO was added to all wells of 384 well V bottom polystyrene plate (Greiner, Cat#781280) except to columns 1 and 13, rows 0 and P and wells M13-M23 and N13-N23. Test compounds (60 μL, 10 mM) were added to Column 1 and 13 (A1 through N1 and A13 through L13). Test compounds were serially diluted 1/3 by transferring and mixing 20 μl sample with 40 μL DMSO.
(§5) DMSO (40 μL) was added to wells of 384 well V bottom polystyrene plate: O2 through O11, M14 through M23, N14 through N23, and O14 through O23. AM630 (also known as [6-iodo-2-methyl-1-[2-(4-morpholinyl)ethyl]-1H-indol-3-yl](4-methoxyphenyl)-methanone, Cayman Chemical, Cat#10006974) (60 μL, 10 mM) was added to 01; and 1-(2,4-dichlorophenyl)-7-[(4-fluorophenyl)methylene]-4,5,6,7-tetrahydro-N-1-piperidinyl-1H-indazole-3-carboxamide (60 μL, 10 mM) was added to N13. The control was serially diluted 1/3 by transferring and mixing 20 μl sample with 40 μL DMSO. This process resulted 11 doses per control, 10 mM to […].
(§6) Cells plated the day prior to the assay in clear bottom plates were viewed on an inverse microscope to ensure confluency in the range of 60-75%. […]
A general note: Cyclic AMP is a second messenger, typically raised through Gs and lowered through Gi signalling.

Assay [2] addresses Human CB1R (Cannabinoid receptor 1) (Homo sapiens (Human), UniProt P21554). Nature of the assay: CB-1 in vitro cAMP assay (HTRF), inverse agonism. The assay is classed as cell-based. Conditions: mean where tested more than once.
Text: as §1, §2, §3, §4, §5, §6

Each structure is given as a SMILES string.

Chain of Human CB1R (Cannabinoid receptor 1) (P21554 whole entry): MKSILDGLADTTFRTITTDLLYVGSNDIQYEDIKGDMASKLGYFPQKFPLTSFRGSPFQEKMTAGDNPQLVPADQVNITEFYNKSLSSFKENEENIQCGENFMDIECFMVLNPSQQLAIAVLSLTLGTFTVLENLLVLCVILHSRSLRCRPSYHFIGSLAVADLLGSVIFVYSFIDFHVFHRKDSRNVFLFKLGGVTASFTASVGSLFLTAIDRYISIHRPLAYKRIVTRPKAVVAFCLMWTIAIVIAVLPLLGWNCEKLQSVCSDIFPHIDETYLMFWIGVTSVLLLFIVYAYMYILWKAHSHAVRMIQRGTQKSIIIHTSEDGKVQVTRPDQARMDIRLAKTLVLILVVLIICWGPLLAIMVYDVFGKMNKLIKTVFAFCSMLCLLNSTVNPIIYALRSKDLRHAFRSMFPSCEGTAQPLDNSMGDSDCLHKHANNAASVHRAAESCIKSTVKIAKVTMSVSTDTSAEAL
Chain of Human CB2R (Cannabinoid receptor 2) (P34972 whole entry): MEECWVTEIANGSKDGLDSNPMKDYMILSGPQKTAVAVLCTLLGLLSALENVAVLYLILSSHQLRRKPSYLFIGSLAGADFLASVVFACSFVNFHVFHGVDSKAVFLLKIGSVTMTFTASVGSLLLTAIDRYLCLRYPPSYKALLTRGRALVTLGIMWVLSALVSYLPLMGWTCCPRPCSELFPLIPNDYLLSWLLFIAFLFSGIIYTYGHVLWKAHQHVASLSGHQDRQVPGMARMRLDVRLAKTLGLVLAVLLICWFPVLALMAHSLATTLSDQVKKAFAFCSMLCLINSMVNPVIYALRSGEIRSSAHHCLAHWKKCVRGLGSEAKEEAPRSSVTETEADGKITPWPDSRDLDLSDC

Take `O=c1cc(N[C@H]2CCN(S(=O)(=O)C(F)(F)F)C2)c2cc(C(c3ccc(Cl)cc3)c3nccs3)ccc2[nH]1` (stereo partly drawn) [Compound 48, 6-[(4-Chlorophenyl)(1,3-thiazol-2-yl)methyl]-4-({(3S)-1-[(trifluoromethyl)sulfonyl]-pyrrolidin-3-yl}amino)quinolin-2(1H)-one]: the EC50 in assay [1] was over 3.3 µM; in assay [2], 0.23 µM. Taken in the same sequence, the figures for `O=c1cc(/C=C/c2ccc(Cl)cc2)c2cc(C(c3ccccc3)c3ccc(Cl)cc3)ccc2[nH]1` (centres unmarked) [Compound 34, 4-[(E)-2-(4-Chlorophenyl)ethenyl]-6-[(4-chlorophenyl)(phenyl)methyl]quinolin-2(1H)-one] were over 10 µM and 1.47 µM. Taken in the same sequence, the figures for `O=c1cc(Nc2ccc(CC(F)(F)F)cc2)c2cc(C(c3ccc(Cl)cc3)c3ccc(Cl)cc3)cc(Br)c2[nH]1` [Compound 93] were over 10 µM and 0.015 µM. Taken in the same sequence, the figures for `COc1ccc(C(O)(c2ccc(Cl)cc2)c2ccc3nc(OC(C)(C)C)cc(/C=C/c4ccccc4)c3c2)cc1` (centres unmarked) [Compound 512, (E)-(2-(tert-butoxy)-4-styrylquinolin-6-yl)(4-chlorophenyl)(4-methoxyphenyl)methanol] were over 10 µM and over 10 µM.

Regarding `NC(=O)Cn1c(=O)cc(NC2CCN(S(=O)(=O)C(F)(F)F)CC2)c2cc(C(c3ccc(Cl)cc3)c3ccc(Cl)cc3)ccc21` [Compound 90, 2-(6-(bis(4-chlorophenyl)methyl)-2-oxo-4-((1-((trifluoromethyl)sulfonyl)piperidin-4-yl)amino)quinolin-1(2H)-yl)acetamide], the figures for the EC50 in assay [1] and in assay [2] were over 10 µM and 0.967 µM, respectively. Consider `O=C(O)c1ccc(C(=O)N2CCC(Nc3cc(=O)[nH]c4ccc(C(c5ccc(Cl)cc5)c5ccc(Cl)cc5)cc34)CC2)cc1` [Compound 116, 4-{[4-({6-[Bis(4-chlorophenyl)methyl]-2-oxo-1,2-dihydroquinolin-4-yl}amino)piperidin-1-yl]carbonyl}benzoic acid], for which the EC50 was over 10 µM in assay [1] and 0.438 µM in assay [2]. With `Cc1ccc(/C=C/c2cc(=O)[nH]c3ccc(C(c4ccc(Cl)cc4)c4cccs4)cc23)cc1` (centres unmarked) [Compound 27, 6-[(4-Chlorophenyl)(thiophen-2-yl)methyl]-4-[(E)-2-(4-methylphenyl)ethenyl]-quinolin-2(1H)-one], the results for the EC50 in assay [1] and in assay [2] were over 10 µM and 0.443 µM, respectively. Taken in the same sequence, the figures for `O=c1cc(/C=C/c2ccccc2)c2cc(C(c3ccc(Cl)cc3)c3cccs3)ccc2[nH]1` (centres unmarked) [Compound 21, 6-[(4-Chlorophenyl)(thiophen-2-yl)methyl]-4-[(E)-2-phenylethenyl]quinolin-2(1H)-one] were over 10 µM and 4.14 µM. Taken in the same sequence, the figures for `COc1cc(NC2CCN(S(=O)(=O)C(F)(F)F)CC2)c2cc(C(c3ccc(Cl)cc3)c3ccc(Cl)cc3)cc(CCCO)c2n1` [Compound 550, 3-(6-(bis(4-chlorophenyl)methyl)-2-methoxy-4-((1-((trifluoromethyl)sulfonyl)piperidin-4-yl)amino)quinolin-8-yl)propan-1-ol] were 0.115 µM and 0.031 µM. Consider `COCCCc1cc(C(c2ccc(Cl)cc2)c2ccc(Cl)cc2)cc2c(NC3CCN(S(=O)(=O)C(F)(F)F)CC3)cc(OC)nc12` [Compound 548, 6-[bis(4-chlorophenyl)methyl]-2-methoxy-8-(3-methoxypropyl)-N-[1-(trifluoromethane)sulfonylpiperidin-4-yl]quinolin-4-amine], for which the figures for the EC50 in assay [1] and in assay [2] were over 42 µM and 0.058 µM, respectively. Taken in the same sequence, the figures for `O=C1CCCN1c1cc(C(c2ccc(Cl)cc2)c2ccc(Cl)cc2)cc2c(NC3CCN(S(=O)(=O)C(F)(F)F)CC3)cc(=O)[nH]c12` [Compound 107, 6-(bis(4-chlorophenyl)methyl)-8-(2-oxopyrrolidin-1-yl)-4-((1-((trifluoromethyl)sulfonyl)piperidin-4-yl)amino)quinolin-2(1H)-one] were 0.67 µM and 0.052 µM. For `O=c1cc(NC2CCN(S(=O)(=O)C(F)(F)F)CC2)c2cc(C(O)(c3ccc(F)cc3)c3ccc(Cl)cc3)ccc2[nH]1` (centres unmarked) [Compound 50, 6-[(4-Chlorophenyl)(4-fluorophenyl)hydroxymethyl]-4-({1-[(trifluoromethyl)sulfonyl]-piperidin-4-yl}amino)quinolin-2(1H)-one], the results for the EC50 in assay [1] and in assay [2] were 9.7 µM and 0.53 µM, respectively. For the compound `COC(=O)CCCCCOc1cc(NC2CCN(S(=O)(=O)C(F)(F)F)CC2)c2cc(C(c3ccc(Cl)cc3)c3ccc(Cl)cc3)ccc2n1` [Compound 534, Methyl 6-({6-[bis(4-chlorophenyl)methyl]-4-({1-[(trifluoromethyl)sulfonyl]-piperidin-4-yl}amino)quinolin-2-yl}oxy)hexanoate], the EC50 in assay [1] is over 10 µM; in assay [2], 2.2 µM.

Consider `COC(=O)c1ccc(Nc2cc(=O)[nH]c3ccc(C(c4ccc(Cl)cc4)c4ccc(Cl)cc4)cc23)cc1` [Compound 85, Methyl 4-({6-[bis(4-chlorophenyl)methyl]-2-oxo-1,2-dihydroquinolin-4-yl}amino)benzoate], for which the EC50 in assay [1] was over 10 µM; in assay [2], 0.07 µM. Taken in the same sequence, the figures for `O=C(CC(F)(F)F)N1CCC(Nc2cc(=O)[nH]c3ccc(C(c4ccc(Cl)cc4)c4ccc(Cl)cc4)cc23)CC1` [Compound 69, 6-[Bis(4-chlorophenyl)methyl]-4-{[1-(3,3,3-trifluoropropanoyl)piperidin-4-yl]amino}quinolin-2(1H)-one] were 4.2 µM and 0.01 µM. Taken in the same sequence, the figures for `O=c1cc(NC2CCN(S(=O)(=O)N3CCCC3)CC2)c2cc(C(c3ccc(Cl)cc3)c3ccc(Cl)cc3)ccc2[nH]1` [Compound 81, 6-(bis(4-chlorophenyl)methyl)-4-((1-(pyrrolidin-1-ylsulfonyl)piperidin-4-yl)amino)quinolin-2(1H)-one] were over 10 µM and 0.015 µM.

Regarding `O=S(=O)(Oc1cc(C2=CCN(S(=O)(=O)C(F)(F)F)CC2)c2cc(C(c3ccc(Cl)cc3)c3ccc(Cl)cc3)ccc2n1)C(F)(F)F` [Compound 519, 6-(bis(4-chlorophenyl)methyl)-4-(1-((trifluoromethyl)sulfonyl)-1,2,3,6-tetrahydropyridin-4-yl)quinolin-2-yl trifluoromethanesulfonate], the figures for the EC50 in assay [1] and in assay [2] were 0.04 µM and over 10 µM, respectively. The like results for `O=c1cc(NC2CCN(S(=O)(=O)C(F)(F)F)CC2)c2cc(C(c3ccc(O)cc3)c3ccc(Cl)cc3)ccc2[nH]1` (centres unmarked) [Compound #66, 6-((4-chlorophenyl)(4-hydroxyphenyl)methyl)-4-((1-((trifluoromethyl)sulfonyl)piperidin-4-yl)amino)quinolin-2(1H)-one] were, in that order, 7.69 µM and 0.022 µM.

`O=c1cc(NCC2CNC2)c2cc(C(c3ccc(Cl)cc3)c3nccs3)ccc2[nH]1` (centres unmarked) [Compound 43, 4-[(Azetidin-3-ylmethyl)amino]-6-[(4-chlorophenyl)(1,3-thiazol-2-yl)methyl]quinolin-2(1H)-one] displayed an EC50 in assay [2] of over 10 µM. On the same count and under the same terms, the same measure for `CC(C)(C)OC(=O)N1CC(CNc2cc(=O)[nH]c3ccc(C(c4ccc(Cl)cc4)c4nccs4)cc23)C1` (centres unmarked) [Compound 42, tert-Butyl 3-[({6-[(4-chlorophenyl)(1,3-thiazol-2-yl)methyl]-2-oxo-1,2-dihydroquinolin-4-yl}amino)methyl]azetidine-1-carboxylate]: 2.33 µM.

By EC50 is commonly meant the midpoint of the concentration-response curve. A high value points to weaker potency.

The record behind these values is patent publication US9266835B2, “Quinoline derivatives useful as CB-1 inverse agonists” (JANSSEN PHARMACEUTICA NV, priority 2014, dated 2016).
